Measurements reported in the NIST ThermoML archive (doi:10.1021/je800101v).
± gives the expanded uncertainty stated by the source.

Assay: xn = mol fraction of the nth substance listed
Conditions: Ring tensiometer

CCCCCO [pentan-1-ol] + OCCO
surface tension liquid-gas [mN/m]
Conditions | 298.15 K | 303.15 K | 308.15 K | 313.15 K | 318.15 K
x1 = 0.0488 | 35.01 ± 0.52 | 34.4 ± 0.51 | 33.65 ± 0.5 | 33.18 ± 0.5 | 32.85 ± 0.49
x1 = 0.0931 | 32.1 ± 0.49 | 30.89 ± 0.47 | 30.71 ± 0.47 | 30.51 ± 0.47 | 30.37 ± 0.47
x1 = 0.1523 | 29.93 ± 0.46 | 29.14 ± 0.45 | 29.25 ± 0.45 | 29.05 ± 0.45 | 28.87 ± 0.45
x1 = 0.2043 | 29.26 ± 0.46 | 28.56 ± 0.45 | 28.41 ± 0.45 | 28.27 ± 0.44 | 28.09 ± 0.44
x1 = 0.2502 | 28.35 ± 0.45 | 27.94 ± 0.44 | 27.81 ± 0.44 | 27.67 ± 0.44 | 27.51 ± 0.44
x1 = 0.2912 | 28.04 ± 0.44 | 27.65 ± 0.44 | 27.51 ± 0.44 | 27.35 ± 0.43 | 27.17 ± 0.43
x1 = 0.3503 | 27.01 ± 0.43 | 27.05 ± 0.43 | 26.91 ± 0.43 | 26.8 ± 0.43 | 26.68 ± 0.43
x1 = 0.4094 | 27.39 ± 0.44 | 26.62 ± 0.43 | 26.48 ± 0.43 | 26.31 ± 0.42 | 26.18 ± 0.42
x1 = 0.4586 | 26.71 ± 0.43 | 26.19 ± 0.42 | 25.98 ± 0.42 | 25.82 ± 0.42 | 25.69 ± 0.42
x1 = 0.5003 | 26.75 ± 0.43 | 25.77 ± 0.42 | 25.61 ± 0.42 | 25.43 ± 0.41 | 25.27 ± 0.41
x1 = 0.552 | 26.53 ± 0.43 | 25.39 ± 0.42 | 25.21 ± 0.41 | 25.02 ± 0.41 | 24.91 ± 0.41
x1 = 0.5982 | 25.71 ± 0.42 | 25.15 ± 0.41 | 24.98 ± 0.41 | 24.81 ± 0.41 | 24.68 ± 0.41
x1 = 0.6425 | 26.32 ± 0.43 | 24.96 ± 0.41 | 24.79 ± 0.41 | 24.67 ± 0.41 | 24.53 ± 0.41
x1 = 0.6979 | 26.21 ± 0.43 | 24.75 ± 0.41 | 24.57 ± 0.41 | 24.41 ± 0.4 | 24.25 ± 0.4
x1 = 0.7197 | 26.12 ± 0.43 | 24.63 ± 0.41 | 24.51 ± 0.41 | 24.37 ± 0.4 | 24.19 ± 0.4
x1 = 0.7739 | 25.98 ± 0.42 | 24.35 ± 0.41 | 24.18 ± 0.4 | 23.98 ± 0.4 | 23.82 ± 0.4
x1 = 0.837 | 24.89 ± 0.41 | 24.23 ± 0.4 | 24.15 ± 0.4 | 23.92 ± 0.4 | 23.78 ± 0.4
x1 = 0.9113 | 25.45 ± 0.42 | 24.13 ± 0.4 | 24 ± 0.4 | 23.81 ± 0.4 | 23.65 ± 0.4
x1 = 0.9536 | 25.25 ± 0.42 | 24.02 ± 0.4 | 23.89 ± 0.4 | 23.75 ± 0.4 | 23.61 ± 0.4
